# Experimental data from patent US20220378801A1, “NOVEL COMPOUNDS” (AC Immune SA, priority 2019, published 2022).
# Columns and labels:
# Type in all cases: cell-based
# [1] = biological target: T1, NLRP3 inflammasome (Homo sapiens, UniProt Q96P20); assay: NLRP3 inflammasome activation assay, IL-1 beta release, HMDM cells, MSU stimulation; settings: LPS-primed primary human monocyte-derived macrophages; MSU 150 μg/ml 3 h; IL-1β by AlphaLISA
# Description: (§1) The following assays can be used to determine the inhibitory activity of test compounds on the NLRP3 inflammasome using common stimuli nigericin (Invivogen) or monosodium urate crystals (MSU)(Invivogen).
# (§2) Human monocyte-like cells are cultured in RPM11640 Glutamax medium supplemented with 10% heat inactivated FCS and 50 U/ml penicillin-streptomycin (Life Technologies). HMDM (Human Monocyte Derived Macrophage) are isolated from human blood with leucosep tubes and classical monocyte isolation kit from Miltenyi based on negative selection.
# (§3) Primary human monocyte-derived macrophages (HMDM) are seeded at 30000 per well in a 96 well plate and differentiated into macrophages with 10 ng/ml Human M-CSF (Macrophage Colony Stimulating Factor). At DIV 8 (Day in vitro) medium containing 10 ng/ml LPS is added. After 3 h of LPS priming, concentrations of test compound in the range from […] are added 30 min prior to NLRP3 inflammasome stimulation with Nigericin 2.5 μM or MSU 150 μg/ml for 3 h.
# (§4) For IL-1β quantification, supernatants are analyzed using AlphaLISA kits according to the manufacturer's instructions (Perkin Elmer AlphaLISA AL220F).
# (§5) IC50 (concentration corresponding to 50% inhibition) were determined using GraphPad Prism 8.
# [2] = biological target: T1, NLRP3 inflammasome; assay: NLRP3 inflammasome activation assay, IL-1 beta release, HMDM cells, Nigericin stimulation; settings: LPS-primed primary human monocyte-derived macrophages; Nigericin 2.5 μM 3 h; IL-1β by AlphaLISA
# Description: as §1, §2, §3, §4, §5
# [3] = biological target: T1, NLRP3 inflammasome; assay: NLRP3 inflammasome activation assay, IL-1 beta release, human monocyte-like cells, MSU stimulation; parameters: endogenous in cells; settings: PMA-differentiated, LPS-primed human monocyte-like cells; MSU 150 μg/ml 3 h; IL-1β by AlphaLISA
# Description: as §1, §2
# (§6) NLRP3 inflammasome activation assays Human monocyte-like cells are seeded at 75000 per well in a 96 well plate and differentiated overnight into macrophages with 10 ng/ml PMA (Phorbol Myristate Acetate). The following day, medium containing 10 ng/ml LPS (lipopolysaccharide) is added. After 3 h of LPS priming, concentrations of test compound in the range from 100 μM to 6 nM are added 30 min prior to NLRP3 inflammasome stimulation with Nigericin 3.75 μM or MSU 150 μg/ml for 3 h.
# as §4, §5
# [4] = biological target: T1, NLRP3 inflammasome; assay: NLRP3 inflammasome activation assay, IL-1 beta release, human monocyte-like cells, Nigericin stimulation; parameters: endogenous in cells; settings: PMA-differentiated, LPS-primed human monocyte-like cells; Nigericin 3.75 μM 3 h; IL-1β by AlphaLISA
# Description: as §1, §2, §6, §4, §5
# T1 sequence (Q96P20 whole entry): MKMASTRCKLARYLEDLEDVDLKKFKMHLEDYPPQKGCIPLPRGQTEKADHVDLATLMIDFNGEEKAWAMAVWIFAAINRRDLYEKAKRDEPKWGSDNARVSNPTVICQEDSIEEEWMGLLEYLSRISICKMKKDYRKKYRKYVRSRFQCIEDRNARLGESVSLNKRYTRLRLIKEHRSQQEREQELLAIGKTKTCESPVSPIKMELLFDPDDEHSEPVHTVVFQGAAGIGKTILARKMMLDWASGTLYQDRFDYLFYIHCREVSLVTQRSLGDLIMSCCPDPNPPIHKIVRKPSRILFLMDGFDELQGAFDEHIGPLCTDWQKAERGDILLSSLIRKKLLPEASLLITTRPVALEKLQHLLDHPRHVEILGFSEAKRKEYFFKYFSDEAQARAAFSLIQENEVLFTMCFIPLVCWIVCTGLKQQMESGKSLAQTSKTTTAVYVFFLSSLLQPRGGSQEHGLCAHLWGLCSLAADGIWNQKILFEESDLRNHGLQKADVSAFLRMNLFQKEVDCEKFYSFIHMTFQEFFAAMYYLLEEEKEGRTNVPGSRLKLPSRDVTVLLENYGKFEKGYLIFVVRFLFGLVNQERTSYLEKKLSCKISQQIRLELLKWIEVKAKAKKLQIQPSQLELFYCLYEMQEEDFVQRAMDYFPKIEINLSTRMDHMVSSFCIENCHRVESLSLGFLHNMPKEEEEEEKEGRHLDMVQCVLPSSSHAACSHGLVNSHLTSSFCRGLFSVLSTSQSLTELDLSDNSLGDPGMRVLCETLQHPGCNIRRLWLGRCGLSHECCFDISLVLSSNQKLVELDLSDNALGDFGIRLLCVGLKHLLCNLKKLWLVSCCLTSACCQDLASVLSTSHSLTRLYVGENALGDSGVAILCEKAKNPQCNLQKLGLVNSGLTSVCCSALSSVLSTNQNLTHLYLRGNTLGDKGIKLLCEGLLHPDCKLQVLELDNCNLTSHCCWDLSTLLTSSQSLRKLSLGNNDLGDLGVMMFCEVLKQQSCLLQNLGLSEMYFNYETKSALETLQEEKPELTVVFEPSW
IC50 [1] [µM],IC50 [2] [µM],IC50 [3] [µM],IC50 [4] [µM],SMILES
1 to 10,1 to 10,< 1,< 1,COc1cc(-c2cccc(C(C)C)c2NC(=O)NS2(=O)=NC(=O)c3ccc(C(C)(C)O)cc32)ccn1 (centres unmarked) [Example 31]
1 to 10,–,< 1,1 to 10,O=C(N=S1(=O)NC(=O)c2ccc(Br)cc21)Nc1c2c(cc3c1CCC3)CCC2 (centres unmarked) [Example 24]
1 to 10,–,< 1,1 to 10,"O=C(Nc1c2c(cc3c1CCC3)CCC2)NS1(=O)=NC(=O)c2ccc(F)cc21 (single isomer, unassigned) [Example 63]"
1 to 10,–,< 1,1 to 10,O=C(N=S1(=O)NC(=O)c2cccnc21)Nc1c2c(cc3c1CCC3)CCC2 (centres unmarked) [Example 2]
< 1,1 to 10,< 1,1 to 10,"O=C(N=S1(=O)NC(=O)c2ccccc21)Nc1c2c(cc3c1CCC3)CCC2 (single isomer, unassigned) [Example 1b]"
< 1,1 to 10,< 1,< 1,"O=C(Nc1c2c(c(F)c3c1CCC3)CCC2)NS1(=O)=NC(=O)c2ccccc21 (single isomer, unassigned) [Example 37]"
1 to 10,–,1 to 10,1 to 10,O=C(Nc1c2c(cc3c1CCC3)CCC2)NS1(=O)=NC(=O)c2cc(Cl)ccc21 (centres unmarked) [Example 12]
< 1,< 1,< 1,< 1,"COc1ccc2c(c1)S(=O)(NC(=O)Nc1c3c(cc4c1CCC4)CCC3)=NC2=O (single isomer, unassigned) [Example 48]"
1 to 10,–,< 1,1 to 10,"O=C(Nc1c2c(c(F)c3c1CCC3)CCC2)NS1(=O)=NC(=O)c2sccc21 (single isomer, unassigned) [Example 54]"
1 to 10,1 to 10,< 1,1 to 10,O=C(Nc1c2c(cc3c1CCC3)CCC2)NS1(=O)=NC(=O)c2c(Cl)cccc21 (centres unmarked) [Example 11]
< 1,< 1,< 1,< 1,"CC(C)(O)c1ccc2c(c1)S(=O)(=NC(=O)Nc1c3c(cc4c1CCC4)CCC3)NC2=O (centres unmarked) [Example 30, 1-(1,2,3,5,6,7-hexahydro-s-indacen-4-yl)-3-(6-(2-hydroxypropan-2-yl)-1-oxido-3-oxo-3H-1,4-benzo[d]isothiazol-1-yl)urea]"
1 to 10,1 to 10,< 1,1 to 10,Cc1cccc2c1C(=O)N=S2(=O)NC(=O)Nc1c2c(cc3c1CCC3)CCC2 (centres unmarked) [Example 14]
< 1,1 to 10,< 1,1 to 10,"O=C(Nc1c2c(cc3c1CCC3)CCC2)NS1(=O)=NC(=O)c2c(Cl)cccc21 (single isomer, unassigned) [Example 42]"
1 to 10,–,< 1,1 to 10,O=C(Nc1c2c(cc3c1CCC3)CCC2)NS1(=O)=NC(=O)c2ccncc21 (centres unmarked) [Example 7]
< 1,–,< 1,1 to 10,O=C(Nc1c2c(cc3c1CCC3)CCC2)NS1(=O)=NC(=O)c2c(F)cccc21 (centres unmarked) [Example 25]
< 1,–,< 1,1 to 10,O=C(Nc1c2c(cc3c1CCC3)CCC2)NS1(=O)=NC(=O)c2cc(F)ccc21 (centres unmarked) [Example 26]
< 1,1 to 10,< 1,< 1,"O=C(N=S1(=O)NC(=O)c2ccc(Br)cc21)Nc1c2c(cc3c1CCC3)CCC2 (single isomer, unassigned) [Example 60]"
< 1,< 1,< 1,< 1,"O=C(Nc1c2c(cc3c1CCC3)CCC2)NS1(=O)=NC(=O)c2sccc21 (single isomer, unassigned) [Example 36]"

IC50 [1] [µM],IC50 [2] [µM],IC50 [3] [µM],IC50 [4] [µM],SMILES
< 1,< 1,< 1,< 1,O=C(Nc1c2c(c(F)c3c1CCC3)CCC2)NS1(=O)=NC(=O)c2sccc21 (centres unmarked) [Example 19]
< 1,1 to 10,< 1,< 1,O=C(Nc1c2c(cc3c1CCC3)CCC2)NS1(=O)=NC(=O)c2sccc21 (centres unmarked) [Example 4]
1 to 10,–,< 1,1 to 10,"CC(C)(O)c1ccc2c(c1)S(=O)(=NC(=O)Nc1c3c(cc4c1CCC4)CCC3)NC2=O (single isomer, unassigned) [Example 40]"
< 1,< 1,< 1,< 1,"O=C(Nc1c2c(c(F)c3c1CCC3)CCC2)NS1(=O)=NC(=O)c2sccc21 (single isomer, unassigned) [Example 55]"
< 1,1 to 10,< 1,< 1,"O=C(Nc1c2c(cc3c1CCC3)CCC2)NS1(=O)=NC(=O)c2cc(F)ccc21 (single isomer, unassigned) [Example 62]"
1 to 10,–,< 1,1 to 10,"O=C(Nc1c2c(cc3c1CCC3)CCC2)NS1(=O)=NC(=O)c2sccc21 (single isomer, unassigned) [Example 35]"
–,1 to 10,< 1,< 1,"O=C(Nc1c2c(cc3c1CCC3)CCC2)NS1(=O)=NC(=O)c2nc(Cl)ccc21 (single isomer, unassigned) [Example 64]"
< 1,< 1,< 1,< 1,"CC(C)(O)c1ccc2c(c1)S(=O)(=NC(=O)Nc1c3c(cc4c1CCC4)CCC3)NC2=O (single isomer, unassigned) [Example 41]"
< 1,1 to 10,< 1,1 to 10,O=C(Nc1c2c(c(F)c3c1CCC3)CCC2)NS1(=O)=NC(=O)c2ccccc21 (centres unmarked) [Example 5]
< 1,1 to 10,< 1,1 to 10,O=C(Nc1c2c(cc3c1CCC3)CCC2)NS1(=O)=NC(=O)c2ccccc2C1 (centres unmarked) [Example 3]
1 to 10,–,1 to 10,1 to 10,O=C(Nc1cc2c(c3c1CCC3)CCC2)NS1(=O)=NC(=O)c2ccccc21 (centres unmarked) [Example 6]
–,–,< 1,1 to 10,"O=C(Nc1c2c(cc3c1CCC3)CCC2)NS1(=O)=NC(=O)c2ccccc2C1 (single isomer, unassigned) [Example 33]"
< 1,1 to 10,< 1,1 to 10,O=C(N=S1(=O)NC(=O)c2ccccc21)Nc1c2c(cc3c1CCC3)CCC2 (racemic) [Example 1]
–,–,1 to 10,1 to 10,O=C(Nc1c2c(cc3c1CCC3)CCC2)NS1(=O)=NC(=O)c2ncccc21 (centres unmarked) [Example 8]
–,–,< 1,1 to 10,"O=C(Nc1c2c(cc3c1CCC3)CCC2)NS1(=O)=NC(=O)c2c(F)cccc21 (single isomer, unassigned) [Example 61]"
–,–,< 1,1 to 10,"O=C(Nc1c2c(cc3c1CCC3)CCC2)NS1(=O)=NC(=O)c2ccncc21 (single isomer, unassigned) [Example 38]"
< 1,1 to 10,< 1,< 1,"O=C(Nc1c2c(cc3c1CCC3)CCC2)NS1(=O)=NC(=O)c2ccccc2C1 (single isomer, unassigned) [Example 34]"
–,–,1 to 10,1 to 10,"COc1cc(-c2cc(F)cc(C(C)C)c2NC(=O)NS2(=O)=NC(=O)c3sccc32)ccn1 (single isomer, unassigned) [Example 50]"
